Structures are written as SMILES. “And” between values parts separate entries of the source, which are not always exact repeats. Equal values may be shown once.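 Following 48 hours of exposure in 96-well plates, responses at five concentrations were used to interpolate endpoints linearly. Here, GI50 denotes the concentration required for 50% inhibition of growth. TGI: total growth inhibition.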

As a reminder, the TGI is the concentration giving total growth inhibition. Higher therefore signals less potent growth arrest. By GI50 is commonly meant the concentration giving 50% growth inhibition.

Assay in all cases: DTP human tumour cell line panel, 48 h
The subject of assay [1] is NCI-H23 lung.
Assay [2] concerns OVCAR-8 ovarian.
For assay [3], the system named is SF-539 CNS.
Assay [4] concerns SNB-75 CNS.
In assay [5] the test system is UACC-62 melanoma.
For assay [6], the system named is CCRF-CEM leukemia.
Assay [7] relates to A498 renal.
The subject of assay [8] is MCF7 breast.
Assay [9] relates to SF-268 CNS.
Assay [10] concerns LOX IMVI melanoma.

As for `COc1cc(/C=C(\C)[N+](=O)[O-])cc(OC)c1`, the concentration for total growth inhibition (TGI) was 37.1 µM in [1]; 29.7 µM in assay [2]; 16.9 µM in assay [3]; 31.8 µM in assay [4]; 28.7 µM in assay [5]; 5.77 µM in assay [6]. The TGI in assay [7] is 25 µM; in assay [8], 21.1 µM; in [9] it was 35.6 µM; in [10], 11.9 µM.

As for `OCCc1ccsc1-c1sc(-c2cc(CCO)c(-c3sc(-c4cc(CCO)c(-c5sccc5CCO)s4)cc3CCO)s2)cc1CCO`, the TGI was 2.87 µM in assay [1]; 3.13 µM in assay [2]; 2.95 µM in assay [3]; 2.89 µM in [4]; 3.41 µM in assay [5]; over 25.4 µM in assay [6]. Besides, the TGI in [7] stood at 3.65 µM; in [8], 1.95 µM; in [9] it was 2.14 µM; in [10], 2.47 µM.

For the molecule `CC(=O)OC1CCn2c1nc1cc([N+](=O)[O-])c(C)cc12` (centres undefined), the TGI in [1], in assay [2], in assay [3], in assay [4], in [5] and in assay [6] was over 100 µM each time. The TGI in [7], in [8], in [9] and in assay [10] was over 100 µM in each case.

`CNC(=O)[C@H](Cc1ccccc1)NC(=O)N(CCC#N)CCN(C(=O)N[C@@H](Cc1ccccc1)C(=O)OC)c1ccccc1`: the TGI in assay [1], in assay [2], in [3], in assay [4], in assay [5] and in assay [6] was over 100 µM throughout. Moreover, the TGI in [7], in assay [8], in assay [9] and in assay [10] was over 100 µM throughout.

On to `CCOP1(=O)CC(C)=C(Cl)C(OC)C1` (centres undefined), for which the TGI in assay [1], in assay [2], in [3], in assay [4], in assay [5] and in assay [6] was over 100 µM each time. The total growth inhibition concentration (TGI) in assay [7], in assay [8], in assay [9] and in [10] was over 100 µM in each case.

In the case of `CC(=O)OCC1OC(OCCCOP(=O)(OCCC#N)OCC2OC(n3cnc4c(N)ncnc43)C(OC(=O)c3ccccc3)C2OC(=O)c2ccccc2)C(OC(C)=O)C(OC(C)=O)C1OC(C)=O` (centres undefined), the TGI in assay [1], in assay [2], in assay [3], in assay [4], in assay [5] and in [6] was over 100 µM throughout. Besides, the TGI in assay [7], in [8], in [9] and in [10] was over 100 µM each time.

As to `Nc1nc(Sc2ccc([N+](=O)[O-])c3nonc23)c2[nH]cnc2n1`, the TGI in assay [1] amounted to 10.9 µM; in assay [2] it was 9.7 µM; in assay [3], 14.8 µM; in [4], 12.2 µM; in assay [5], 11.2 µM; in assay [6], 2.13 µM. Besides, the TGI in [7] turned out to be 13.8 µM; in [8] it was 12 µM; in assay [9] it was 18 µM; in assay [10] it was 11.7 µM.

On to `S=c1ncc(-c2cncc(-c3cnc(=S)[nH]c3)n2)c[nH]1`, for which the TGI in [1], in [2], in [3], in assay [4], in [5] and in assay [6] was over 100 µM each time. Besides, the concentration for total growth inhibition (TGI) in assay [7], in assay [8] and in assay [9] was over 100 µM in each case.

For the molecule `COC(=O)c1ccccc1CC1Cc2c(C)ccc(C)c2C1=O` (centres undefined), the TGI is 55.2 µM in assay [1]; over 100 µM in assay [2]; over 100 µM in assay [3]; over 100 µM in [4]; over 100 µM in assay [5]; 52.8 µM in [6]. Also, the TGI in [7] is 71 µM; in assay [8], 30 µM; in [9] it was over 100 µM; in [10], 37.4 µM.

As for `Nc1nc(Cl)c(CO)c(NCC2(CO)CCC2)n1`, the TGI in assay [1], in assay [2], in assay [3], in assay [4], in [6] and in assay [7] was over 100 µM in each case. In addition, the TGI in assay [8], in [9] and in assay [10] was over 100 µM each time.

Turning to `CC(C)c1cc(=O)[nH]c2cc(N)ccc12`, the TGI in assay [1], in assay [2], in [3], in assay [4], in assay [5] and in assay [6] was over 100 µM throughout. The TGI in [7], in assay [8] and in assay [10] was over 100 µM in each case.

For `O/N=C\c1c2c(cc3c1CCC3)CCC2`, the TGI in assay [1], in [2], in [3], in assay [4], in assay [5] and in [6] was over 100 µM throughout. For the same molecule, the TGI in assay [7], in assay [8], in assay [9] and in assay [10] was over 100 µM in each case.

In the case of `O=C1c2cc3c(cc2NC(c2ccccc2F)C1O)OCO3` (centres undefined), the TGI in assay [1] was over 91.5 µM; in assay [2] it was 71.9 µM; in [3], 35.2 µM; in assay [4], 56.9 µM; in assay [5], 64 µM; in [6], 97.7 µM. Moreover, the TGI in assay [7] was 58.1 µM; in assay [8], over 100 µM; in [9], 68.2 µM; in assay [10] it was over 100 µM.

Regarding `Nc1nc(N)c2nc(CN(C=O)c3ccc(C(=O)O)cc3)cnc2n1`, the concentration for total growth inhibition (TGI) in assay [1], in [2], in assay [3], in assay [4], in assay [5] and in [6] was over 100 µM throughout. Also, the concentration for total growth inhibition (TGI) is over 79.9 µM in assay [7], over 100 µM in assay [8], over 100 µM in assay [9] and over 100 µM in assay [10].

For the molecule `O=c1c(-c2nc3ccccc3c3ccccc3c2=O)nc2ccccc2c2ccccc12`, the total growth inhibition concentration (TGI) was over 100 µM in assay [1]; over 100 µM in [2]; 55.3 µM in assay [3]; 94.9 µM in assay [4]; over 100 µM in [5]; 86.8 µM in [6]. The TGI in assay [7], in assay [8], in assay [9] and in assay [10] was over 100 µM each time.

In the case of `Nc1cccc(-c2cc(=O)c3cc4c(cc3[nH]2)OCO4)c1`, the total growth inhibition concentration (TGI) in assay [1] is 22.6 µM; in assay [2] it was over 22.6 µM; in assay [3], 2.79 µM; in assay [4], over 100 µM; in assay [5], 11.5 µM; in assay [6] it was over 100 µM. The TGI in assay [7] was over 100 µM; in [8] it was over 100 µM; in [9], over 100 µM; in assay [10], 59.7 µM.

As for `CN(CCN)[C@H](CSSC[C@@H](c1ccccc1O)N(C)CCN)c1ccccc1O`, the TGI in assay [1] was 28.5 µM; in assay [2], 47.6 µM; in [3], 31.9 µM; in assay [4] it was 29 µM; in [5], 24.5 µM; in [6] it was 10.5 µM. Also, the TGI in [7] is 39.2 µM; in assay [8] it was over 52.7 µM; in [9] it was 33.7 µM; in [10] it was 28.5 µM.

Turning to `Cc1ccc(C2=CC(=O)/C(=C\C(=O)c3ccc(Br)cc3)O2)c(C)c1`, the TGI was 56.9 µM in [1]; 19 µM in assay [2]; 57.1 µM in [3]; 28.2 µM in assay [4]; 22.7 µM in assay [5]; over 100 µM in assay [6]. Also, the TGI in assay [7] was 39.4 µM; in [8], 23.8 µM; in assay [9], 31.5 µM; in assay [10] it was over 21.1 µM.

Take `ClC1=NSSC1(Cl)Cl`: the TGI in [1] was over 100 µM; in [2], 87.2 µM; in [3], over 100 µM; in assay [4], over 100 µM; in assay [5], over 100 µM; in [6], over 100 µM. Moreover, the TGI in [7], in assay [8] and in [10] was over 100 µM each time.

Consider `NCCCN(CCCCN(CCCN)CCCc1ccccc1)CCCc1ccccc1`, for which the TGI amounted to 17.4 µM in assay [1]; 27 µM in assay [2]; 3.55 µM in [3]; 5.04 µM in assay [4]; 3.28 µM in assay [5]; 7.83 µM in assay [6]. Moreover, the TGI in [7] was found to be 32.8 µM; in assay [8] it was 3.56 µM; in [9], 8.32 µM; in assay [10], 6.38 µM.

Take `CC(=O)Oc1ccc2cc(Oc3cc(Cl)c(Cl)cc3Cl)c(=O)oc2c1`: the TGI worked out at 88.5 µM in [1]; 34.7 µM in assay [2]; 31.2 µM in assay [3]; 44.6 µM in [4]; 37.9 µM in assay [6]; 46.7 µM in [7]. Besides, the results for the concentration for total growth inhibition (TGI) in [8], in assay [9] and in [10] were 67.7 µM, over 100 µM and 28.9 µM, respectively.

For `CCCC(=O)Nc1cc(C(=O)N2C[C@H]3C[C@@]34C2=CC(=O)c2[nH]cc(C)c24)n(COC)c1`, the 50% growth inhibitory concentration (GI50) in assay [1] is 0.0328 µM; in [2] it was 0.13 µM; in assay [3], 0.118 µM; in assay [5], 0.144 µM; in [7] it was 0.22 µM; in [8] it was 0.0139 µM. For the same molecule, the GI50 in assay [9] is 0.0847 µM. For the same molecule, the TGI in assay [1] is 0.452 µM and 0.213 µM; in assay [2], 0.343 µM and 0.392 µM; in [4], 1.45 µM and 0.718 µM; in assay [5], 0.911 µM and 0.289 µM; in [6] it was 0.105 µM and 0.245 µM; in assay [7] it was 1.7 µM and 0.758 µM. Also, the TGI in assay [8] is 6.32 µM and 0.661 µM; in assay [9], 1.5 µM and 11.1 µM.

For `COc1cccc(NC(=O)CC(=O)NN)c1`, the TGI in assay [1], in [2], in assay [3], in assay [4], in [5] and in [6] was over 100 µM each time. The TGI in [7], in [8], in assay [9] and in assay [10] was over 100 µM each time.

On to `COC(=O)CN1CCN(c2cccc3c2CCCC3)CC1`, for which the TGI in [1] is 48.7 µM; in assay [2], over 100 µM; in assay [3] it was over 100 µM; in assay [4], over 100 µM; in [5] it was over 100 µM; in assay [6] it was over 100 µM. The TGI was over 100 µM in [7], 94.3 µM in [8] and over 100 µM in assay [10].

On to `O=C(NNC(=O)c1ccco1)c1ccco1`, for which the TGI in assay [2], in assay [3], in assay [4], in [5], in assay [6] and in assay [7] was over 100 µM throughout. Further, the TGI in assay [8], in [9] and in assay [10] was over 100 µM throughout.

For `CNC(=O)OCc1cnc([N+](=O)[O-])n1C`, the TGI in [1], in [2], in [3], in [4], in [6] and in [7] was over 100 µM in each case. The TGI in assay [8], in [9] and in assay [10] was over 100 µM each time.

In the case of `CSc1cc(Cl)c(C)cc1S(=O)(=O)NC(=O)NNc1ccc(C)cc1`, the TGI in assay [2], in assay [3], in [4], in [6], in assay [7] and in assay [8] was over 100 µM throughout. In addition, the TGI in assay [9] and in [10] was over 100 µM each time.

On to `NC(=S)NNCC(=O)CC(O)(C(F)(F)F)C(F)(F)Cl` (centres undefined), for which the TGI in assay [1], in assay [2], in [3], in assay [4], in [5] and in assay [6] was over 100 µM in each case. For the same molecule, the TGI in assay [7], in assay [8] and in [10] was over 100 µM each time.

The values above are taken from PubChem BioAssay (NCI).
